# Laboratory results from patent US12493040B2, “Cancer detection method using sense of smell of nematode” (HIROTSU BIO SCIENCE INC., priority 2013, dated 2025).
# Tested on: RNAi-treated eri-1 (mg366) nematodes
# Assay: RNAi screening of olfactory receptor genes: chemotaxis assay of RNAi-treated nematodes to odorants
# Type: in vivo, Caenorhabditis elegans
# Conditions: low concentration of attractant
# Summary of the method: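 Chemotaxis of adult RNAi-fed eri-1 (mg366) nematodes (30–50 per test) was measured toward low (1 μl, 10^−3 or 10^−4 dilution) or high (1 and 5 μl neat) odorant doses. Knockdown: 4 days feeding on E. coli from Ahringer library with IPTG and ampicillin. Differences called by z score at ±1.96, weaker cutoff ±0.96.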
smiles,measurement,setting,value
CCC(C)=O [butanone],chemotaxis index,Control nematodes,0.65 ± 0.021
same,chemotaxis index,srh-10 RNAi-treated nematodes,−0.65
same,chemotaxis index,srh-11 RNAi-treated nematodes,−0.15
same,chemotaxis index,srh-15 RNAi-treated nematodes,0.55
same,chemotaxis index,srh-16 RNAi-treated nematodes,0.74
same,chemotaxis index,srh-18 RNAi-treated nematodes,0.52
same,chemotaxis index,srh-19 RNAi-treated nematodes,0.89
same,chemotaxis index,srh-22 RNAi-treated nematodes,0.19
same,chemotaxis index,srh-23 RNAi-treated nematodes,0.67
same,chemotaxis index,srh-24 RNAi-treated nematodes,0.59
same,chemotaxis index,srh-25 RNAi-treated nematodes,0.72
same,chemotaxis index,srh-27 RNAi-treated nematodes,0.63
same,chemotaxis index,srh-28 RNAi-treated nematodes,0.55
same,chemotaxis index,srh-36 RNAi-treated nematodes,0.37
same,chemotaxis index,srh-37 RNAi-treated nematodes,0.37
same,chemotaxis index,srh-39 RNAi-treated nematodes,0.48
same,chemotaxis index,srh-40 RNAi-treated nematodes,0.94
same,chemotaxis index,srh-41 RNAi-treated nematodes,0.64
same,chemotaxis index,srh-44 RNAi-treated nematodes,0.82
same,chemotaxis index,srh-45 RNAi-treated nematodes,0.73
same,chemotaxis index,srh-46 RNAi-treated nematodes,0.82
same,chemotaxis index,srh-48 RNAi-treated nematodes,0.55
same,chemotaxis index,srh-49 RNAi-treated nematodes,0.80
same,chemotaxis index,srh-50 RNAi-treated nematodes,0.87
same,chemotaxis index,srh-51 RNAi-treated nematodes,0.70
same,chemotaxis index,srh-52 RNAi-treated nematodes,0.69
same,chemotaxis index,srh-55 RNAi-treated nematodes,0.43
same,chemotaxis index,srh-59 RNAi-treated nematodes,0.51
same,chemotaxis index,srh-60 RNAi-treated nematodes,0.79
same,chemotaxis index,srh-61 RNAi-treated nematodes,0.74
same,chemotaxis index,srh-67 RNAi-treated nematodes,0.85
same,chemotaxis index,srh-68 RNAi-treated nematodes,0.67
same,chemotaxis index,srh-69 RNAi-treated nematodes,0.66
same,chemotaxis index,srh-70 RNAi-treated nematodes,0.43
same,chemotaxis index,srh-71 RNAi-treated nematodes,0.76
same,chemotaxis index,srh-72 RNAi-treated nematodes,0.58
same,chemotaxis index,srh-74 RNAi-treated nematodes,0.76
same,chemotaxis index,srh-75 RNAi-treated nematodes,0.76
same,chemotaxis index,srh-77 RNAi-treated nematodes,0.70
same,chemotaxis index,srh-79 RNAi-treated nematodes,0.58
same,chemotaxis index,srh-80 RNAi-treated nematodes,0.64
same,chemotaxis index,srh-82 RNAi-treated nematodes,0.79
same,chemotaxis index,srh-83 RNAi-treated nematodes,0.71
same,chemotaxis index,srh-97 RNAi-treated nematodes,0.80
same,chemotaxis index,srh-99 RNAi-treated nematodes,0.75
same,chemotaxis index,srh-100 RNAi-treated nematodes,0.80
same,chemotaxis index,srh-104 RNAi-treated nematodes,0.48
same,chemotaxis index,srh-105 RNAi-treated nematodes,0.76
same,chemotaxis index,srh-109 RNAi-treated nematodes,0.89
same,chemotaxis index,srh-111 RNAi-treated nematodes,0.59
same,chemotaxis index,srh-113 RNAi-treated nematodes,0.30
same,chemotaxis index,srh-115 RNAi-treated nematodes,0.70
same,chemotaxis index,srh-116 RNAi-treated nematodes,0.56
same,chemotaxis index,srh-118 RNAi-treated nematodes,0.60
same,chemotaxis index,srh-119 RNAi-treated nematodes,0.50
same,chemotaxis index,srh-120 RNAi-treated nematodes,0.78
same,chemotaxis index,srh-122 RNAi-treated nematodes,0.58
same,chemotaxis index,srh-123 RNAi-treated nematodes,0.84
same,chemotaxis index,srh-125 RNAi-treated nematodes,0.76
same,chemotaxis index,srh-128 RNAi-treated nematodes,0.69
same,chemotaxis index,srh-129 RNAi-treated nematodes,0.63
same,chemotaxis index,srh-130 RNAi-treated nematodes,0.82
same,chemotaxis index,srh-214 RNAi-treated nematodes,0.85
same,chemotaxis index,srh-216 RNAi-treated nematodes,0.86
same,chemotaxis index,srh-217 RNAi-treated nematodes,0.69
same,chemotaxis index,srh-220 RNAi-treated nematodes,0.81
same,chemotaxis index,srh-222 RNAi-treated nematodes,0.62
same,chemotaxis index,srh-223 RNAi-treated nematodes,0.88
same,chemotaxis index,srh-227 RNAi-treated nematodes,0.37
same,chemotaxis index,srh-229 RNAi-treated nematodes,0.60
same,chemotaxis index,srh-233 RNAi-treated nematodes,0.50
same,chemotaxis index,srh-235 RNAi-treated nematodes,0.76
same,chemotaxis index,srh-236 RNAi-treated nematodes,0.71
same,chemotaxis index,srh-239 RNAi-treated nematodes,0.59
same,chemotaxis index,srh-241 RNAi-treated nematodes,0.63
same,chemotaxis index,srh-243 RNAi-treated nematodes,0.72
same,chemotaxis index,srh-244 RNAi-treated nematodes,0.73
same,chemotaxis index,srh-247 RNAi-treated nematodes,0.85
same,chemotaxis index,srh-250 RNAi-treated nematodes,0.79
same,chemotaxis index,srh-251 RNAi-treated nematodes,0.92
same,chemotaxis index,srh-252 RNAi-treated nematodes,0.86
same,chemotaxis index,srh-258 RNAi-treated nematodes,0.56
same,chemotaxis index,srh-261 RNAi-treated nematodes,0.60
same,chemotaxis index,srh-264 RNAi-treated nematodes,0.56
same,chemotaxis index,srh-266 RNAi-treated nematodes,−0.31
same,chemotaxis index,srh-274 RNAi-treated nematodes,−0.59
same,chemotaxis index,srh-275 RNAi-treated nematodes,−0.29
same,chemotaxis index,srh-276 RNAi-treated nematodes,0.30
same,chemotaxis index,srh-277 RNAi-treated nematodes,−0.09
same,chemotaxis index,srh-279 RNAi-treated nematodes,0.89
same,chemotaxis index,srh-281 RNAi-treated nematodes,0.49
same,chemotaxis index,srh-282 RNAi-treated nematodes,0.80
same,chemotaxis index,srh-283 RNAi-treated nematodes,0.65
same,chemotaxis index,srh-284 RNAi-treated nematodes,0.73
same,chemotaxis index,srh-291 RNAi-treated nematodes,0.86
same,chemotaxis index,srh-292 RNAi-treated nematodes,0.80
same,chemotaxis index,srh-293 RNAi-treated nematodes,0.75
same,chemotaxis index,srh-297 RNAi-treated nematodes,0.84
same,chemotaxis index,srh-298 RNAi-treated nematodes,0.65
same,chemotaxis index,srh-308 RNAi-treated nematodes,0.04
